Source: patent US20070098777A1, “Pharmaceutical or Food Composition for Treatment or Prevention of Brain Edema” (AJINOMOTO CO., INC., priority 2000, published 2007)

Experiments:
astrocytes [1] = assay: Injury of incubated astrocytes by 3-NPA, neutron red assay; format: cell-based, rat; conditions: average ± SE, after 3 days
Experimental: (§1) Isolation and incubation of astrocytes were conducted according to the method as described in Neuroscience, 87: […], 1998. Thus, cerebral cortex of a fetal rat was removed, from which astrocytes were separated with trypsin treatment at 37° C. for 20 minutes and incubated on a 24 well culture dish containing DMEM media+10% FBS under 5% CO2/air atmosphere at 37° C.
(§2) The injury of incubated astrocytes was induced by replacing the medium with a serum-free DMEM medium (serum-free group) or adding 6 mM of a metabolic inhibitor, 3-nitropropionic acid (3-NPA), to the medium (3-NPA group). The serum-free group and the 3-NPA group were divided into two sub-groups, respectively. To one sub-group of each group, 10 μg/ml of melatonin was added to the medium.
(§3) The number of the alive astrocytes was counted according to the neutron red assay after 3 days from the incubation in the 3-NPA group or according to the MTT (3-(4,5-dimethyl-thiozolyl)-2,5-diphenyl-tetrazolium bromide) assay after 10 days from the replacement of the medium. The test of significance was conducted by ANOVA.

cheek pouch of a hamster = conditions: cited from earlier work
[2] = test system: ischemic or histamine-induced paw edema; conditions: various antioxidants including melatonin, together with dexamethasone; cited from earlier work
CA1 hippocampal neurons = conditions: intraperitoneally, especially prior to cerebral ischemia or during recanalization; cited from earlier work
neurons = assay: MAP-2 staining of brain specimens after brain ischemia; format: in vivo, rat; conditions: 6 mg/kg melatonin for 10 days, versus non-melatonin group
astroglia = assay: GFAP staining of brain specimens after brain ischemia (middle cerebral artery plug, 1 h, recanalization); format: in vivo, rat; conditions: 11 days after onset of ischemia, 6 mg/kg melatonin for 10 days, versus non-melatonin group
Text: Eight to ten-week-old Wister male rats having the body weight of 250 to 300 g were used.
Under halothane anesthesia, a 24 G plug was inserted from a right external carotid artery of each rat so as to arrive to an origin of its middle cerebral artery of Willis's circle through its internal carotid artery. Immediately the anesthesia was stopped and the rat was dehypnotized. After one hour, the plug was taken out under halothane anesthesia, thereby a blood flow was recanalized.
After 11 days from an onset of brain ischemia, the brain of each rat was fixed with an aqueous 4% paraformaldehyde solution to prepare a brain specimen. Then, the brain specimen was stained according to the standard ABC method using an anti-GFAP antibody (GFAP staining; astroglia were stained)
Ischemic rats in Example 1 were divided into two groups. In the first group (non-melatonin administration group), a physiological saline solution was injected to a stomach of each rat using a sound for 10 days from the first day (24 hours after the recanalization of the blood flow). In the second group (melatonin administration group), a melatonin-containing physiological saline solution was similarly administered in an amount of 6 mg of melatonin per kg of rat. […]

[3] = test system: production of NO in brain; conditions: after transient ischemia/recirculation; cited from earlier work
astrocytes [4] = assay: Injury of incubated astrocytes by serum-free medium, MTT assay; format: cell-based, rat; conditions: average ± SE, serum-free DMEM + 10 μg/ml melatonin, after 10 days
Experimental: as §1, §2, §3

[5] = test system: carrageenan-induced inflammatory paw swelling; conditions: rats; cited from earlier work
blood-brain barrier = assay: IgG diapedesis area from blood vessel after brain ischemia (anti-IgG staining, NIH imaging); format: in vivo, rat; conditions: average ± SE; 6 mg/kg melatonin into stomach for 10 days from 24 hours after recanalization; 11 rats
Text: Eight to ten-week-old Wister male rats having the body weight of 250 to 300 g were used. Under halothane anesthesia, a 24 G plug was inserted from a right external carotid artery of each rat so as to arrive to an origin of its middle cerebral artery of Willis's circle through its internal carotid artery. Immediately the anesthesia was stopped and the rat was dehypnotized. After one hour, the plug was taken out under halothane anesthesia, thereby a blood flow was recanalized. Ischemic rats in Example 1 were divided into two groups. In the first group (non-melatonin administration group), a physiological saline solution was injected to a stomach of each rat using a sound for 10 days from the first day (24 hours after the recanalization of the blood flow). In the second group (melatonin administration group), a melatonin-containing physiological saline solution was similarly administered in an amount of 6 mg of melatonin per kg of rat.

[6] = test system: acute pancreatitis (pancreatic edema) induced by cerulein; conditions: rats; cited from earlier work

Compound	number of astrocytes (astrocytes [1]; 6 mM 3-NPA alone)	edema caused by ischemia-reperfusion of microcirculation (cheek pouch of a hamster; hamster cheek pouch)	increase of permeability of capillaries caused by free radicals (cheek pouch of a hamster; topical exposure to hypoxanthine-xanthine oxidase)	suppression by dexamethasone of ischemic or histamine-induced paw edema [2]	protection of CA1 hippocampal neurons from ischemic injury (CA1 hippocampal neurons)	number of the alive neurons (neurons)	falling out of astroglia in ischemic core area and gliosis in penumbra area (astroglia)	production of NO in brain [3]	number of astrocytes (astrocytes [4])	carrageenan-induced inflammatory paw swelling [5]	IgG diapedesis area, cerebral cortex (blood-brain barrier)	IgG diapedesis area, corpus striatum (blood-brain barrier)	acute pancreatitis (pancreatic edema) induced by cerulein [6]	number of astrocytes (astrocytes [1]; 6 mM 3-NPA + 10 μg/ml melatonin, neutral red assay)
O=C(O)CC[N+](=O)[O-] [3-NPA, 3-nitropropionic acid]	50 ± 5 % of control	–	–	–	–	–	–	–	–	–	–	–	–	–
COc1ccc2[nH]cc(CCNC(C)=O)c2c1 [melatonin, N-[2-(5-methoxy-1H-indol-3-yl)ethyl]acetamide]	–	reduces edema	reduces the increase of permeability	enhance or prolong	protects	higher	reduced	inhibits	48 ± 4 % of control	suppresses	5.5 ± 4.5 mm^2	7.2 ± 4.0 mm^2	reduces an acute pancreatitis	63 ± 4 % of control
